Assay results reported in ChEMBL document CHEMBL1124667 (1989).

Tests used:
MCF7 [1] = test: Growth inhibitory activity against MCF-7 human breast tumor cell line at a concentration of 10e-8 M in vitro.; format: functional; parameters: scale not given: the % may be the effect or the level left
MCF7 [2] = test: Growth inhibitory activity against MCF-7 human breast tumor cell line at a concentration of 10e-7 M in vitro.; format: functional; parameters: scale not given: the % may be the effect or the level left
MCF7 [3] = test: Growth inhibitory activity against MCF-7 human breast tumor cell line at a concentration of 10e-6 M in vitro.; format: functional; parameters: scale not given: the % may be the effect or the level left
[4] = target: Estrogen receptor (Homo sapiens) (UniProt Q92731+P03372); test: Relative binding affinity against estrogen receptors in MCF-7 whole cells; format: cell-based; details: MCF7

CCC(=C(c1ccc(O)cc1)c1ccc(OCCN(C)C)cc1)c1ccccc1
Activity (MCF7 [1]): 48%
Activity (MCF7 [2]): 38%
Activity (MCF7 [3]): 15%

CC/C(=C(\c1ccc(Br)cc1)c1ccc(OCCN(C)C)cc1)c1ccccc1
Activity (MCF7 [1]): 130%
Activity (MCF7 [2]): 101%
Activity (MCF7 [3]): 63%

CC/C(=C(/c1ccc(OCCN(C)C)cc1)c1ccc([S+](C)[O-])cc1)c1ccccc1 (centres undefined)
Activity (MCF7 [1]): 177%
Activity (MCF7 [2]): 237%
Activity (MCF7 [3]): 238%

CC/C(=C(\c1ccc(C=O)cc1)c1ccc(OCCN(C)C)cc1)c1ccccc1
Activity (MCF7 [1]): 62%
Activity (MCF7 [2]): 38%
Activity (MCF7 [3]): 42%

CC/C(=C(\c1ccc(I)cc1)c1ccc(OCCN(CC)CC)cc1)c1ccccc1
Activity (MCF7 [1]): 101%
Activity (MCF7 [2]): 35%
Activity (MCF7 [3]): 23%

CC/C(=C(\c1ccc(CO)cc1)c1ccc(OCCN(C)C)cc1)c1ccccc1
relative binding affinity (RBA) [4]: 1.5
Activity (MCF7 [1]): 164%
Activity (MCF7 [2]): 145%
Activity (MCF7 [3]): 150%

CC/C(=C(/c1ccccc1)c1ccc(OCCN(C)C)cc1)c1ccccc1
Activity (MCF7 [1]): 135%
Activity (MCF7 [2]): 140%
Activity (MCF7 [3]): 137%

CC/C(=C(/c1ccc(Br)cc1)c1ccc(OCCN(C)C)cc1)c1ccccc1
Activity (MCF7 [1]): 110%
Activity (MCF7 [2]): 163%
Activity (MCF7 [3]): 174%

CC/C(=C(/c1ccc(I)cc1)c1ccc(OCCN(C)C)cc1)c1ccccc1
Activity (MCF7 [1]): 99%
Activity (MCF7 [2]): 126%
Activity (MCF7 [3]): 120%

CC/C(=C(\c1ccc(OCCN(C)C)cc1)c1ccc([S+](C)[O-])cc1)c1ccccc1 (centres undefined)
Activity (MCF7 [1]): 112%
Activity (MCF7 [2]): 135%
Activity (MCF7 [3]): 67%

CC/C(=C(\c1ccccc1)c1ccc(OCCN(C)C)cc1)c1ccccc1 [TAMOXIFEN]
Activity (MCF7 [1]): 119%
Activity (MCF7 [2]): 100%
Activity (MCF7 [3]): 70%

CC/C(=C(/c1ccc(OCCN(C)C)cc1)c1ccc(S(C)(=O)=O)cc1)c1ccccc1
Activity (MCF7 [1]): 125%
Activity (MCF7 [2]): 75%
Activity (MCF7 [3]): 29%

CC/C(=C(\c1ccc(I)cc1)c1ccc(OCCN2CCCC2)cc1)c1ccccc1 [IDOXIFENE]
Activity (MCF7 [1]): 84%
Activity (MCF7 [2]): 27%
Activity (MCF7 [3]): 20%

CC/C(=C(\c1ccc(I)cc1)c1ccc(OCCN(C)C)cc1)c1ccccc1
Activity (MCF7 [1]): 115%
Activity (MCF7 [2]): 42%
Activity (MCF7 [3]): 26%

CC/C(=C(\c1ccc(Cl)cc1)c1ccc(OCCN(C)C)cc1)c1ccccc1
Activity (MCF7 [1]): 116%
Activity (MCF7 [2]): 119%
Activity (MCF7 [3]): 56%

CC/C(=C(/c1ccc(OCCN(C)C)cc1)c1cccc(I)c1)c1ccccc1
Activity (MCF7 [1]): 100%
Activity (MCF7 [2]): 68%
Activity (MCF7 [3]): 27%

CC/C(=C(/c1ccc(OCCN(C)C)cc1)c1ccc(C2CO2)cc1)c1ccccc1 (centres undefined)
Activity (MCF7 [1]): 113%
Activity (MCF7 [2]): 42%
Activity (MCF7 [3]): 19%

CC/C(=C(\c1ccc(OCCN(C)C)cc1)c1ccc(SC)cc1)c1ccccc1
Activity (MCF7 [1]): 102%
Activity (MCF7 [2]): 117%
Activity (MCF7 [3]): 69%

CC/C(=C(\c1ccc(OCCN(C)C)cc1)c1ccc(S(C)(=O)=O)cc1)c1ccccc1
Activity (MCF7 [1]): 88%
Activity (MCF7 [2]): 114%
Activity (MCF7 [3]): 140%

CC/C(=C(\c1ccc(S)cc1)c1ccc(OCCN(C)C)cc1)c1ccccc1
Activity (MCF7 [1]): 94%
Activity (MCF7 [2]): 110%
Activity (MCF7 [3]): 147%

CC/C(=C(/c1ccc(OCCN(C)C)cc1)c1ccc(SC)cc1)c1ccccc1
Activity (MCF7 [1]): 154%
Activity (MCF7 [2]): 66%
Activity (MCF7 [3]): 54%
